Data reported in patent publication US20240057606A1, “MOLECULES HAVING CERTAIN PESTICIDAL UTILITIES, AND INTERMEDIATES, COMPOSITIONS, AND PROCESSES RELATED THERETO” (priority 2020, published 2024).

Legend:
Type in all cases: in vivo
[1] = test system: Cabbage Looper (Trichoplusia ni, "CL"); assay: Bioassay on cabbage looper, 128-well diet tray assay; conditions: 168 h, 50 μg/cm^2 of test compound on artificial diet, second instar larvae, 25° C., five to seven days, average of eight wells, read-out: CL % Control (or Mortality) rating
Protocol: (§1) Bioassays on Beet Armyworm (Spodoptera exigua, “BAW”) and Cabbage Looper (Trichoplusia ni, “CL”)
(§2) Certain molecules disclosed in this document were tested against BAW and CL using procedures described in the following examples. In the reporting of the results, the “BAW & CL Rating Table” was used (See Table Section).
Bioassays on CL were conducted using a 128-well diet tray assay. one to five second instar CL larvae were placed in each well (3 mL) of the diet tray that had been previously filled with 1 mL of artificial diet to which 50 μg/cm^2 of the test compound (dissolved in 50 μL of 90:10 acetone-water mixture) had been applied (to each of eight wells) and then allowed to dry. Trays were covered with a clear self-adhesive cover and held at 25° C., 14:10 light-dark cycle for five to seven days. Percent mortality was recorded for the larvae in each well; activity in the eight wells was then averaged. The results are indicated in the table entitled “Table ABC: Biological Results” (See Table Section).

[2] = test system: Beet Armyworm (Spodoptera exigua, "BAW"); assay: Bioassay on beet armyworm, 128-well diet tray assay; conditions: 168 h, 50 μg/cm^2 of test compound on artificial diet, second instar larvae, 25° C., five to seven days, average of eight wells, read-out: BAW % Control (or Mortality) rating
Protocol: as §1, §2
Bioassays on BAW were conducted using a 128-well diet tray assay. one to five second instar BAW larvae were placed in each well (3 mL) of the diet tray that had been previously filled with 1 mL of artificial diet to which 50 μg/cm^2 of the test compound (dissolved in 50 μL of 90:10 acetone-water mixture) had been applied (to each of eight wells) and then allowed to dry. Trays were covered with a clear self-adhesive cover and held at 25° C., 14:10 light-dark cycle for five to seven days. Percent mortality was recorded for the larvae in each well; activity in the eight wells was then averaged. The results are indicated in the table entitled “Table ABC: Biological Results” (See Table Section).

[3] = test system: Yellow Fever Mosquito (Aedes aegypti, "YFM"); assay: Bioassay on yellow fever mosquito larvae, 96-well plate assay; conditions: 4000 ppm DMSO master solution diluted with 90:10 water:acetone; about 1 day-old larvae; room temperature; scored after 3 days
Protocol: Bioassays On Yellow Fever Mosquito (Aedes aegypti, “YFM”)
Certain molecules disclosed in this document were tested against YFM using procedures described in the following paragraph. In the reporting of the results, the “YFM Rating Table” was used (See Table Section).
Master plates containing 400 μg of a molecule dissolved in 100 μL of dimethyl sulfoxide (DMSO) (equivalent to a 4000 ppm solution) are used. A master plate of assembled molecules contains 15 μL per well. To this plate, 135 μL of a 90:10 water:acetone mixture is added to each well. A robot (Biomek® NXP Laboratory Automation Workstation) is programmed to dispense 15 μL aspirations from the master plate into an empty 96-well shallow plate (“daughter” plate). There are 6 reps (“daughter” plates) created per master. The created daughter plates are then immediately infested with YFM larvae.
The day before plates are to be treated, mosquito eggs are placed in Millipore water containing liver powder to begin hatching (4 g. into 400 mL). After the daughter plates are created using the robot, they are infested with 220 μL of the liver powder/larval mosquito mixture (about 1 day-old larvae). After plates are infested with mosquito larvae, a non-evaporative lid is used to cover the plate to reduce drying. Plates are held at room temperature for 3 days prior to grading. After 3 days, each well is observed and scored based on mortality.

| Structure (SMILES) | mortality at 50 µg/cm2 [1] [%] | mortality at 50 µg/cm2 [2] [%] | YFM % Control (or Mortality) rating [3] |
| --- | --- | --- | --- |
| Cc1cc(-c2ncn(-c3ccc(OC(F)(F)C(F)(F)F)cc3)n2)ccc1NC(=O)/N=C1\SCC(=O)N1c1cccc2occc12 [F22, (Z)-1-(3-(Benzofuran-4-yl)-4-oxothiazolidin-2-ylidene)-3-(2-methyl-4-(1-(4-(perfluoroethoxy)phenyl)-1H-1,2,4-triazol-3-yl)phenyl)urea] | 50 to 100 | 50 to 100 | A (80-100) |
| O=C(/N=C1\SCC(=O)N1c1cccc2ocnc12)Nc1ccc(-c2ncn(-c3ccc(OC(F)(F)F)cc3)n2)cc1F [F7, (Z)-1-(3-(Benzo[d]oxazol-4-yl)-4-oxothiazolidin-2-ylidene)-3-(2-fluoro-4-(1-(4-(trifluoromethoxy)phenyl)-1H-1,2,4-triazol-3-yl)phenyl)urea] | 50 to 100 | 50 to 100 |  |
| O=C(/N=C1\SCC(=O)N1c1cccc2c1CCC2)Nc1ccc(-c2ncn(-c3ccc(OC(F)(F)F)cc3)n2)cc1F [F10, (Z)-1-(3-(2,3-Dihydro-1H-inden-4-yl)-4-oxothiazolidin-2-ylidene)-3-(2-fluoro-4-(1-(4-(trifluoromethoxy)phenyl)-1H-1,2,4-triazol-3-yl)phenyl)urea] | 50 to 100 | 50 to 100 |  |
| O=C(/N=C1\SCC(=O)N1c1cccc2ccoc12)Nc1ccc(-c2ncn(-c3ccc(OC(F)(F)F)cc3)n2)cc1F [F5, (Z)-1-(3-(Benzofuran-7-yl)-4-oxothiazolidin-2-ylidene)-3-(2-fluoro-4-(1-(4-(trifluoromethoxy)phenyl)-1H-1,2,4-triazol-3-yl)phenyl)urea] | 50 to 100 | 50 to 100 |  |
| O=C(/N=C1\SCC(=O)N1c1cccc2ccccc12)Nc1ccc(-c2ncn(-c3ccc(OC(F)(F)F)cc3)n2)cc1F [F16, (Z)-1-(2-Fluoro-4-(1-(4-(trifluoromethoxy)phenyl)-1H-1,2,4-triazol-3-yl)phenyl)-3-(3-(naphthalen-1-yl)-4-oxothiazolidin-2-ylidene)urea] | 50 to 100 | 50 to 100 | A (80-100) |
| O=C(/N=C1\SCC(=O)N1c1ccc2c(c1)C(=O)OC2=O)Nc1ccc(-c2ncn(-c3ccc(OC(F)(F)F)cc3)n2)cc1F [F11, (Z)-1-(3-(1,3-Dioxo-1,3-dihydroisobenzofuran-5-yl)-4-oxothiazolidin-2-ylidene)-3-(2-fluoro-4-(1-(4-(trifluoromethoxy)phenyl)-1H-1,2,4-triazol-3-yl)phenyl)urea] | 50 to 100 | 0 |  |
| Cc1cc(-c2ncn(-c3ccc(OC(F)(F)C(F)(F)F)cc3)n2)ccc1NC(=O)/N=C1\SCC(=O)N1c1ccc2c(ccn2C)c1 [F31, (Z)-1-(3-(1-Methyl-1H-indol-5-yl)-4-oxothiazolidin-2-ylidene)-3-(2-methyl-4-(1-(4-(perfluoroethoxy)phenyl)-1H-1,2,4-triazol-3-yl)phenyl)urea] |  |  | A (80-100) |
| O=C(/N=C1\SCC(=O)N1c1cc2c(cc1COCC(F)(F)F)OCO2)Nc1ccc(-c2ncn(-c3ccc(S(F)(F)(F)(F)F)cc3)n2)cc1F [F3, (Z)-1-(2-Fluoro-4-(1-(4-(pentafluoro-λ^6-sulfaneyl)phenyl)-1H-1,2,4-triazol-3-yl)phenyl)-3-(4-oxo-3-(6-((2,2,2-trifluoroethoxy)methyl)benzo[d][1,3]dioxol-5-yl)thiazolidin-2-ylidene)urea] | 50 to 100 | 50 to 100 |  |
| O=C(/N=C1\SCC(=O)N1c1cccc2ncccc12)Nc1ccc(-c2ncn(-c3ccc(C(F)(F)C(F)(F)F)cc3)n2)cc1F [F34, (Z)-1-(2-Fluoro-4-(1-(4-(perfluoroethyl)phenyl)-1H-1,2,4-triazol-3-yl)phenyl)-3-(4-oxo-3-(quinolin-5-yl)thiazolidin-2-ylidene)urea] |  |  | A (80-100) |
| O=C(/N=C1\SCC(=O)N1c1cc2c(cc1COCC(F)(F)F)OCO2)Nc1ccc(-c2ncn(-c3ccc(OC(F)(F)F)cc3)n2)cc1F [F2, (Z)-1-(2-Fluoro-4-(1-(4-(trifluoromethoxy)phenyl)-1H-1,2,4-triazol-3-yl)phenyl)-3-(4-oxo-3-(6-((2,2,2-trifluoroethoxy)methyl)benzo[d][1,3]dioxol-5-yl)thiazolidin-2-ylidene)urea] | 50 to 100 | 50 to 100 |  |
| Cc1cc(-c2ncn(-c3ccc(OC(F)(F)C(F)(F)F)cc3)n2)ccc1NC(=O)/N=C1\SCC(=O)N1c1cccc2c1OCC2 [F28, (Z)-1-(3-(2,3-Dihydrobenzofuran-7-yl)-4-oxothiazolidin-2-ylidene)-3-(2-methyl-4-(1-(4-(perfluoroethoxy)phenyl)-1H-1,2,4-triazol-3-yl)phenyl)urea] |  |  | A (80-100) |
| O=C(/N=C1\SCC(=O)N1c1cccc2occc12)Nc1ccc(-c2ncn(-c3ccc(OC(F)(F)F)cc3)n2)cc1F [F4, (Z)-1-(3-(Benzofuran-4-yl)-4-oxothiazolidin-2-ylidene)-3-(2-fluoro-4-(1-(4-(trifluoromethoxy)phenyl)-1H-1,2,4-triazol-3-yl)phenyl)urea] | 50 to 100 | 50 to 100 |  |
| Cn1ccc2c(N3C(=O)CS/C3=N\C(=O)Nc3ccc(-c4ncn(-c5ccc(C(F)(F)C(F)(F)F)cc5)n4)cc3F)cccc21 [F30, (Z)-1-(2-Fluoro-4-(1-(4-(perfluoroethyl)phenyl)-1H-1,2,4-triazol-3-yl)phenyl)-3-(3-(1-methyl-1H-indol-4-yl)-4-oxothiazolidin-2-ylidene)urea] |  |  | A (80-100) |
| Cc1cc(-c2ncn(-c3ccc(OC(F)(F)C(F)(F)F)cc3)n2)ccc1NC(=O)/N=C1\SCC(=O)N1c1cccc2ccccc12 [F26, (Z)-1-(2-Methyl-4-(1-(4-(perfluoroethoxy)phenyl)-1H-1,2,4-triazol-3-yl)phenyl)-3-(3-(naphthalen-1-yl)-4-oxothiazolidin-2-ylidene)urea] | 50 to 100 | 50 to 100 |  |
| O=C(/N=C1\SCC(=O)N1c1cccc2c1COC2)Nc1ccc(-c2ncn(-c3ccc(OC(F)(F)F)cc3)n2)cc1F [F8, (Z)-1-(3-(1,3-Dihydroisobenzofuran-4-yl)-4-oxothiazolidin-2-ylidene)-3-(2-fluoro-4-(1-(4-(trifluoromethoxy)phenyl)-1H-1,2,4-triazol-3-yl)phenyl)urea] | 50 to 100 | 50 to 100 |  |
| Cn1ccc2cc(N3C(=O)CS/C3=N\C(=O)Nc3ccc(-c4ncn(-c5ccc(C(F)(F)C(F)(F)F)cc5)n4)cc3F)ccc21 [F24, (Z)-1-(2-Fluoro-4-(1-(4-(perfluoroethyl)phenyl)-1H-1,2,4-triazol-3-yl)phenyl)-3-(3-(1-methyl-1H-indol-5-yl)-4-oxothiazolidin-2-ylidene)urea] |  |  | D (No activity noticed in this bioassay) |
| Cc1cc(-c2ncn(-c3ccc(OC(F)(F)F)cc3)n2)ccc1NC(=O)/N=C1\SCC(=O)N1c1cc2c(cc1COCC(F)(F)F)OCO2 [F1] | 50 to 100 | 50 to 100 |  |
| Cc1cc(-c2ncn(-c3ccc(OC(F)(F)C(F)(F)F)cc3)n2)ccc1NC(=O)/N=C1\SCC(=O)N1c1cccc2c1CCO2 [F25, (Z)-1-(3-(2,3-Dihydrobenzofuran-4-yl)-4-oxothiazolidin-2-ylidene)-3-(2-methyl-4-(1-(4-(perfluoroethoxy)phenyl)-1H-1,2,4-triazol-3-yl)phenyl)urea] | 50 to 100 | 50 to 100 |  |
| O=C(/N=C1\SCC(=O)N1c1cccc2c1OCC2)Nc1ccc(-c2ncn(-c3ccc(OC(F)(F)F)cc3)n2)cc1F [F9, (Z)-1-(3-(2,3-Dihydrobenzofuran-7-yl)-4-oxothiazolidin-2-ylidene)-3-(2-fluoro-4-(1-(4-(trifluoromethoxy)phenyl)-1H-1,2,4-triazol-3-yl)phenyl)urea] | 50 to 100 | 50 to 100 |  |
